Experimental data from ChEMBL document CHEMBL4000220, “Optimization of spirocyclic proline tryptophan hydroxylase-1 inhibitors” (Bioorg Med Chem Lett, 2017).
pIC50: −log10 of the molar value. Each block holds one molecule with its values, some of them ahead of it.

Legend:
Mus musculus [1] = experiment: Drug level in mouse treated with (S)-ethyl 8-(2-amino-6-((R)-1-(5-chloro-3'-sulfamoylbiphenyl-2-yl)-2,2,2-trifluoroethoxy)pyrimidin-4-yl)-2,8-diazaspiro[4.5]decane-3-carboxylate at 10 to 50 mg/kg, po administered as single dose; format: ADME, organism-based; conditions: in vivo
[2] = target: T1, Tryptophan 5-hydroxylase 1 (Homo sapiens, UniProt P17752)
T1 sequence (P17752 whole entry): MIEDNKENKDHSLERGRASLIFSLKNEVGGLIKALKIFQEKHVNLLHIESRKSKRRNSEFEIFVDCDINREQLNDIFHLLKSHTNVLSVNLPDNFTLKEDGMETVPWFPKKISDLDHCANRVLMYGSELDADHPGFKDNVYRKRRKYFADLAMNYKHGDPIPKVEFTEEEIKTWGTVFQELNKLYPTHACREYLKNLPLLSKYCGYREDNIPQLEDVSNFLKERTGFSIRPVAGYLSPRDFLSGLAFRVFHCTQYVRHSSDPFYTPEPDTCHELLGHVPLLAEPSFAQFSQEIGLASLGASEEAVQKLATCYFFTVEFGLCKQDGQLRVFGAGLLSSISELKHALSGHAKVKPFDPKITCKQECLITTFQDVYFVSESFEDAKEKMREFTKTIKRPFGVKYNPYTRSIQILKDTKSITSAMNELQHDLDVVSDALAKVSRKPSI
Description: Inhibition of TPH1 (unknown origin)

Mus musculus [3] = experiment: In vivo inhibition of TPH1 in mouse assessed as reduction in 5-HT level in intestinal mucosa at 50 mg/kg, po administered daily as single dose relative to control; format: functional
Mus musculus [4] = experiment: In vivo inhibition of TPH1 in mouse assessed as reduction in 5-HT level in intestinal mucosa at 10 mg/kg, po administered daily as single dose relative to control; format: functional
Mus musculus [5] = experiment: Prodrug activation in mouse assessed as (S)-8-(2-amino-6-((R)-1-(5-chloro-3'-methoxybiphenyl-2-yl)-2,2,2-trifluoroethoxy)pyrimidin-4-yl)-2,8-diazaspiro[4.5]decane-3-carboxylic acid formation at 10 to 50 mg/kg, po administered as single dose; format: organism-based; conditions: in vivo
Rattus norvegicus [6] = experiment: AUC (0 to last) in rat assessed as (S)-8-(2-amino-6-((R)-1-(3',4'-dimethyl-3-(3-methyl-1H-pyrazol-1-yl)biphenyl-4-yl)-2,2,2-trifluoroethoxy)pyrimidin-4-yl)-2,8-diazaspiro[4.5]decane-3-carboxylic acid level at 25 mg/kg, po; format: ADME, organism-based; parameters: dose 25 mg/kg, time 0 - last, route oral; conditions: in vivo
Rattus norvegicus [7] = experiment: Cmax in rat assessed as (S)-8-(2-amino-6-((R)-1-(3',4'-dimethyl-3-(3-methyl-1H-pyrazol-1-yl)biphenyl-4-yl)-2,2,2-trifluoroethoxy)pyrimidin-4-yl)-2,8-diazaspiro[4.5]decane-3-carboxylic acid level at 25 mg/kg, po; format: ADME, organism-based; parameters: dose 25 mg/kg, route oral; conditions: in vivo
Rattus norvegicus [8] = experiment: Half life in rat assessed as (S)-8-(2-amino-6-((R)-1-(3',4'-dimethyl-3-(3-methyl-1H-pyrazol-1-yl)biphenyl-4-yl)-2,2,2-trifluoroethoxy)pyrimidin-4-yl)-2,8-diazaspiro[4.5]decane-3-carboxylic acid level at 1 mg/kg, iv; format: ADME, organism-based; conditions: in vivo
Mus musculus [9] = experiment: Prodrug activation in mouse assessed as (S)-8-(2-amino-6-((R)-1-(5-chloro-3'-fluorobiphenyl-2-yl)-2,2,2-trifluoroethoxy)pyrimidin-4-yl)-2,8-diazaspiro[4.5]decane-3-carboxylic acid formation at 10 to 50 mg/kg, po administered as single dose; format: organism-based; conditions: in vivo
Mus musculus [10] = experiment: Prodrug activation in mouse assessed as (S)-8-(2-amino-6-((R)-1-(5-chloro-3'-(trifluoromethyl)biphenyl-2-yl)-2,2,2-trifluoroethoxy)pyrimidin-4-yl)-2,8-diazaspiro[4.5]decane-3-carboxylic acid formation at 10 to 50 mg/kg, po administered as single dose; format: organism-based; conditions: in vivo
Mus musculus [11] = experiment: Prodrug activation in mouse assessed as (S)-8-(2-amino-6-((R)-1-(5-chloro-3'-methylbiphenyl-2-yl)-2,2,2-trifluoroethoxy)pyrimidin-4-yl)-2,8-diazaspiro[4.5]decane-3-carboxylic acid formation at 10 to 50 mg/kg, po administered as single dose; format: organism-based; conditions: in vivo
Mus musculus [12] = experiment: Drug level in mouse treated with (S)-ethyl 8-(2-amino-6-((R)-1-(5-chloro-3'-(methylsulfonyl)biphenyl-2-yl)-2,2,2-trifluoroethoxy)pyrimidin-4-yl)-2,8-diazaspiro[4.5]decane-3-carboxylate at 10 to 50 mg/kg, po administered as single dose; format: ADME, organism-based; conditions: in vivo

Drug metabolism (Mus musculus [5]): Metabolite_Detected
SMILES: CCOC(=O)[C@@H]1CC2(CCN(c3cc(O[C@H](c4ccc(Cl)cc4-c4cccc(OC)c4)C(F)(F)F)nc(N)n3)CC2)CN1
inhibition in vivo at 50 mg/kg (Mus musculus [3]): 46%
inhibition in vivo at 10 mg/kg (Mus musculus [4]): 19%

Drug metabolism (Mus musculus [9]): Metabolite_Detected
SMILES: CCOC(=O)[C@@H]1CC2(CCN(c3cc(O[C@H](c4ccc(Cl)cc4-c4cccc(F)c4)C(F)(F)F)nc(N)n3)CC2)CN1
inhibition in vivo at 50 mg/kg (Mus musculus [3]): 61%
inhibition in vivo at 10 mg/kg (Mus musculus [4]): 38%

Drug metabolism (Mus musculus [11]): Metabolite_Detected
SMILES: CCOC(=O)[C@@H]1CC2(CCN(c3cc(O[C@H](c4ccc(Cl)cc4-c4cccc(C)c4)C(F)(F)F)nc(N)n3)CC2)CN1
inhibition in vivo at 50 mg/kg (Mus musculus [3]): 54%
inhibition in vivo at 10 mg/kg (Mus musculus [4]): 24%

The next lines start with the molecule.

SMILES: Nc1nc(O[C@H](c2ccc(Cl)cc2-c2cccc(S(N)(=O)=O)c2)C(F)(F)F)cc(N2CCC3(CC2)CN[C@H](C(=O)O)C3)n1
Drug metabolism (Mus musculus [1]): Metabolite_Detected
pIC50 [2]: 7.96

SMILES: CCOC(=O)[C@@H]1CC2(CCN(c3cc(O[C@H](c4ccc(-c5ccc(C)c(C)c5)cc4-n4ccc(C)n4)C(F)(F)F)nc(N)n3)CC2)CN1
inhibition in vivo at 50 mg/kg (Mus musculus [3]): 70%
AUClast (Rattus norvegicus [6]): 1634 ng·h/mL
Cmax (Rattus norvegicus [7]): 240 ng/mL
t1/2 (Rattus norvegicus [8]): 3.6 h

SMILES: CCOC(=O)[C@@H]1CC2(CCN(c3cc(O[C@H](c4ccc(Cl)cc4-c4cccc(C(F)(F)F)c4)C(F)(F)F)nc(N)n3)CC2)CN1
inhibition in vivo at 50 mg/kg (Mus musculus [3]): 64%
Drug metabolism (Mus musculus [10]): Metabolite_Detected
inhibition in vivo at 10 mg/kg (Mus musculus [4]): 31%

SMILES: CS(=O)(=O)c1cccc(-c2cc(Cl)ccc2[C@@H](Oc2cc(N3CCC4(CC3)CN[C@H](C(=O)O)C4)nc(N)n2)C(F)(F)F)c1
Drug metabolism (Mus musculus [12]): Metabolite_Detected
pIC50 [2]: 7.85
